Laboratory results reported in patent US11058636B2, “Dispersion process of adapalene in a gel preparation” (ZHAOKE (GUANGZHOU) OPHTHALMIC DRUG COMPANY LIMITED, priority 2017, dated 2021).
Read-outs that look alike come from different tables or passages of the source.

Columns and labels:
[1] = cited from earlier work
[2] = system: glutamine invertase of keratinocytes; conditions: in vitro; cited from earlier work
[3] = system: acne; conditions: animals; cited from earlier work
[4] = target: T1, RARPβ (Homo sapiens, UniProt P10826); conditions: cited from earlier work
T1 sequence (P10826 1-455): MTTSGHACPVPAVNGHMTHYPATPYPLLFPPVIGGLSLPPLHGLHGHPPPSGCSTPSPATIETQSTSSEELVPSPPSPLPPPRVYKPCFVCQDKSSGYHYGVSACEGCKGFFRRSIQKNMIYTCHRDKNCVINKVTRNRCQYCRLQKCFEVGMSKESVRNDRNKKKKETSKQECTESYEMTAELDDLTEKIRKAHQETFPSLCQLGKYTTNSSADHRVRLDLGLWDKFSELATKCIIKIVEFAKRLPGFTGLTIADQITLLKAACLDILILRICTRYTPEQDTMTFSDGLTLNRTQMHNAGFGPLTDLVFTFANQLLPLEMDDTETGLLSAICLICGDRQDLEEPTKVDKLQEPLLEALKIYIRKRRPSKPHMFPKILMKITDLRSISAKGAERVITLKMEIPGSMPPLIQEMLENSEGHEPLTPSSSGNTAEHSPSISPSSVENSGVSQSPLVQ

[5] = target: T2, RARα (Homo sapiens, UniProt P10276); conditions: cited from earlier work
T2 sequence (P10276 1-462): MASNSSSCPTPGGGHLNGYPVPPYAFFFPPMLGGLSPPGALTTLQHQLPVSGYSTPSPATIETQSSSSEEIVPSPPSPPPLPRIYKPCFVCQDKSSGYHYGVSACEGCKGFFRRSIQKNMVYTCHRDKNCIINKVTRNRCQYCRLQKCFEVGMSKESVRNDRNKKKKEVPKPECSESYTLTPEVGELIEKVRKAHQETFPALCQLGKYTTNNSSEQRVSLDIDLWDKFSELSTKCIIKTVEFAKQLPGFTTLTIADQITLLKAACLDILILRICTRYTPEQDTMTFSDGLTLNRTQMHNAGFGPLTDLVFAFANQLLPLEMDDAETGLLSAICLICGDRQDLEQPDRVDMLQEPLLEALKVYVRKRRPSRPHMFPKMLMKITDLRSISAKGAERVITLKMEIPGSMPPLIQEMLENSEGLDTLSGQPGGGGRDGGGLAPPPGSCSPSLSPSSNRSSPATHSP

[6] = target: T3, RARγ (Homo sapiens, UniProt P13631); conditions: cited from earlier work
T3 sequence (P13631 1-454): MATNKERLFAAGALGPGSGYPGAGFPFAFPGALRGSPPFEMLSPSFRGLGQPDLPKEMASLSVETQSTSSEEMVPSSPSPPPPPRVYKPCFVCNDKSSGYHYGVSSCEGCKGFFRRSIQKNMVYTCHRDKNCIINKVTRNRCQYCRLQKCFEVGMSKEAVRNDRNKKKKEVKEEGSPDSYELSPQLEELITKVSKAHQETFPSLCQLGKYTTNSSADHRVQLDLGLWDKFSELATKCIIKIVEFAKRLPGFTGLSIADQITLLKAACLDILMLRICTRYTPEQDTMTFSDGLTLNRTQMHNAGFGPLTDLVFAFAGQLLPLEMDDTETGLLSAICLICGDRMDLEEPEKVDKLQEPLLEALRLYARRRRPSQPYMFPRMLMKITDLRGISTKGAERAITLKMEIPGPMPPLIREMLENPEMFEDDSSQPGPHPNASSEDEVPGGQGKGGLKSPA

[7] = Particle size of pulverized adapalene raw material, laser particle size analyzer, dry detection; assay type: physicochemical; conditions: raw material after jet-mill pulverization, dry method detection (Example 3)
Description: Method: Taking the appropriate amount of this product, using Malvern MS3000 laser particle size analyzer, dry detection, D50 should not greater than 10 μm, D90 should not greater than 30 um.
After pulverization the raw materials of adapalene was subjected to dry method detection and D50 was found not more than 10 um, D90 was found not more than 30 um. Adapalene was pulverized using a jet mill to achieve the target particle size.

In the case of `COc1ccc(-c2ccc3cc(C(=O)O)ccc3c2)cc1C12CC3CC(CC(C3)C1)C2` [Adapalene, 6-[3-(1-adamantyl)-4-methoxyphenyl]-2-naphthoic acid], the solubility ([1]; in ethanol) is listed as “insoluble”, the solubility ([1]; in tetrahydrofuran) is listed as “slightly soluble” and the solubility ([1]; in water) is listed as “insoluble”. For the same compound, the “inhibition of glutamine invertase of keratinocytes” value [2] was “inhibits”, the “effects in animal experiments” value [3] was “acne dissolution and local anti-inflammatory effects” and the “binding to RARPβ” value [4] was “mainly binds”. For the same compound, the “binding to RARα” value [5] was “weak binding”, the “binding to RARγ” value [6] was “mainly binds” and the D50 [7] was “not more than 10 um”. The D90 [7] was “not more than 30 um”.
